How the values were obtained:
Plasmodium falciparum [1] = assay: Antiplasmodial activity against chloroquine-sensitive Plasmodium falciparum NF54 by LDH assay; type: functional, organism-based
CHO = assay: Cytotoxicity against CHO cells by MTT assay; type: cell-based; conditions: Cricetulus griseus
Plasmodium falciparum [2] = assay: Antiplasmodial activity against chloroquine-resistant Plasmodium falciparum Dd2 by LDH assay; type: functional, organism-based
[3] = Selectivity index, ratio of IC50 for CHO cells to IC50 for chloroquine-sensitive Plasmodium falciparum NF54; type: toxicity, cell-based; conditions: hamster; read-out: Ratio IC50
[4] = Resistance index, ratio of IC50 for chloroquine-resistant Plasmodium falciparum Dd2 to IC50 for chloroquine-sensitive Plasmodium falciparum NF54

SMILES | IC50 (Plasmodium falciparum [1]) [µM] | further results
c1ccc(CNC(CNc2ccccc2)COc2cccc3cnccc23)cc1 (configuration not stated) | 4.69 | IC50 (CHO): 237 µM; IC50 (Plasmodium falciparum [2]): 8.21 µM; selectivity ratio [3]: 50.5; Ratio IC50 [4]: 1.75
OCC(COc1cccc2cnccc12)NCc1ccc(Cl)cc1Cl (configuration not stated) | > 26.5 | –
COCC(COc1cccc2cnccc12)NCc1ccccc1Cl (configuration not stated) | 16.5 | –
OCC(COc1cccc2cnccc12)NCc1ccc(Cl)cc1 (configuration not stated) | 22.8 | –
[Br-].c1ccc(CN2CC2COc2cccc3c[n+](Cc4ccccc4)ccc23)cc1 (configuration not stated) | 1.09 | IC50 (CHO): 51.8 µM; IC50 (Plasmodium falciparum [2]): 1.02 µM; selectivity ratio [3]: 47.7; Ratio IC50 [4]: 0.94
O=c1c(Cl)c(Cl)cnn1CC(CO)NCc1cc2ccccc2nc1Cl (configuration not stated) | 15 | –
COCC(COc1cccc2cnccc12)NCc1ccccc1OC (configuration not stated) | > 28.4 | –
OCC(COc1cccc2cnccc12)NCc1ccc(C(F)(F)F)cc1 (configuration not stated) | 11.7 | –
COCC(COc1cc(C(F)(F)F)nn1C)NCc1cc2ccccc2nc1OC (configuration not stated) | > 23.6 | –
Fc1ccc(CN2CC2COc2cccc3cnccc23)cc1 (configuration not stated) | 15.9 | –
Cn1nc(C(F)(F)F)cc1OCC(CO)NCc1cnc2ccccc2c1 (configuration not stated) | 4.73 | IC50 (CHO): 181 µM; IC50 (Plasmodium falciparum [2]): 15.2 µM; selectivity ratio [3]: 38.3
OCC(COc1cccc2cnccc12)NCc1ccccc1 (configuration not stated) | 6.81 | IC50 (CHO): 148 µM; IC50 (Plasmodium falciparum [2]): 17.6 µM; selectivity ratio [3]: 21.8; Ratio IC50 [4]: 2.58
Clc1ccccc1CN1CC1COc1cccc2cnccc12 (configuration not stated) | 12.9 | –
O=c1c(Cl)c(Cl)cnn1CC1CN1Cc1ccnc2ccccc12 (configuration not stated) | 26.9 | –
COCC(COc1cccc2cnccc12)NCc1ccc(F)cc1 (configuration not stated) | 24.4 | –
BrC(COc1cccc2c[n+](Cc3ccccc3)ccc12)CN(Cc1ccccc1)Cc1ccccc1.[Br-] (configuration not stated) | 0.22 | IC50 (CHO): 45.1 µM; IC50 (Plasmodium falciparum [2]): 1.17 µM; selectivity ratio [3]: 205; Ratio IC50 [4]: 5.32
c1ccc(CN2CC2COc2cccc3cnccc23)cc1 (configuration not stated) | 9.99 | –
COc1ccccc1CN1CC1COc1cccc2cnccc12 (configuration not stated) | 5.29 | IC50 (CHO): 52.3 µM; IC50 (Plasmodium falciparum [2]): 8.46 µM; selectivity ratio [3]: 9.88; Ratio IC50 [4]: 1.6
Clc1ccc(CN2CC2COc2cccc3cnccc23)cc1 (configuration not stated) | > 30.8 | –
COCC(COc1cc(C(F)(F)F)nn1C)NCc1cc2ccccc2nc1Cl (configuration not stated) | 17 | –

SMILES | IC50 (Plasmodium falciparum [1]) [µM] | further results
O=c1c(Cl)c(Cl)cnn1CC1CN1Cc1cc2ccccc2nc1Cl (configuration not stated) | 22.8 | –
C[C@H]1[C@H](OC(=O)CCC(=O)O)O[C@@H]2O[C@@]3(C)CC[C@H]4[C@H](C)CC[C@@H]1[C@@]24OO3 [ARTESUNATE] | 0.02 | –
O=c1c(Cl)c(Cl)cnn1CC1CN1Cc1cnc2ccccc2c1 (configuration not stated) | 12.7 | –
COCC(COc1cccc2cnccc12)NCc1ccccc1 (configuration not stated) | 13 | –
O=c1nc(C(F)(F)F)ccn1CC1CN1Cc1cc2ccccc2nc1Cl (configuration not stated) | 9.12 | –
CC[C@H]1CN2CCc3cc(OC)c(OC)cc3[C@@H]2C[C@@H]1C[C@H]1NCCc2cc(OC)c(OC)cc21 [EMETINE] | – | IC50 (CHO): 0.4 µM
Cn1nc(C(F)(F)F)cc1OCC1CN1Cc1cnc2ccccc2c1 (configuration not stated) | > 27.6 | –
COCC(COc1cccc2cnccc12)NCc1ccc(OC)cc1 (configuration not stated) | > 28.4 | –
O=c1c(Cl)c(Cl)cnn1CC(CO)NCc1cnc2ccccc2c1 (configuration not stated) | 15.3 | –
Cn1nc(C(F)(F)F)cc1OCC1CN1Cc1ccnc2ccccc12 (configuration not stated) | 9.66 | –
COCC(Cn1ncc(Cl)c(Cl)c1=O)NCc1ccnc2ccccc12 (configuration not stated) | 14.5 | –
Clc1ccc(CNC(CNc2ccccc2)COc2cccc3cnccc23)cc1 (configuration not stated) | 10.5 | –
Cn1nc(C(F)(F)F)cc1OCC(CO)NCc1cc2ccccc2nc1Cl (configuration not stated) | > 24.1 | –
FC(F)(F)c1ccc(CN2CC2COc2cccc3cnccc23)cc1 (configuration not stated) | > 27.9 | –
O=c1c(Cl)c(Cl)cnn1CC(CO)NCc1ccnc2ccccc12 (configuration not stated) | 24.5 | –
Cn1nc(C(F)(F)F)cc1OCC1CN1Cc1cc2ccccc2nc1Cl (configuration not stated) | > 25.2 | –
COc1ccc(CN2CC2COc2cccc3cnccc23)cc1 (configuration not stated) | 9.99 | –
O=c1nc(C(F)(F)F)ccn1CC1CN1Cc1cnc2ccccc2c1 (configuration not stated) | > 27.8 | –
Clc1ccc(CN2CC2COc2cccc3cnccc23)c(Cl)c1 (configuration not stated) | > 27.8 | –

From ChEMBL document CHEMBL3217689, “Synthesis and antiplasmodial evaluation of aziridine(iso)quinoline hybrids and their ring-opening products” (Medchemcomm, 2013)
